Measured values published in patent publication US11242337B2, “Compounds useful for treating gastrointestinal tract disorders” (Ardelyx, Inc., priority 2017, dated 2022).

Experiments:
NHE3 = target: T1, NHE3 (Homo sapiens, UniProt P48764); test: Cell-based assay of NHE-3 activity (persistent inhibition), human; settings: human Persistence, 60 min incubation then washout
T1 construct: expressed in transfected cells
T1 sequence (P48764 26-834): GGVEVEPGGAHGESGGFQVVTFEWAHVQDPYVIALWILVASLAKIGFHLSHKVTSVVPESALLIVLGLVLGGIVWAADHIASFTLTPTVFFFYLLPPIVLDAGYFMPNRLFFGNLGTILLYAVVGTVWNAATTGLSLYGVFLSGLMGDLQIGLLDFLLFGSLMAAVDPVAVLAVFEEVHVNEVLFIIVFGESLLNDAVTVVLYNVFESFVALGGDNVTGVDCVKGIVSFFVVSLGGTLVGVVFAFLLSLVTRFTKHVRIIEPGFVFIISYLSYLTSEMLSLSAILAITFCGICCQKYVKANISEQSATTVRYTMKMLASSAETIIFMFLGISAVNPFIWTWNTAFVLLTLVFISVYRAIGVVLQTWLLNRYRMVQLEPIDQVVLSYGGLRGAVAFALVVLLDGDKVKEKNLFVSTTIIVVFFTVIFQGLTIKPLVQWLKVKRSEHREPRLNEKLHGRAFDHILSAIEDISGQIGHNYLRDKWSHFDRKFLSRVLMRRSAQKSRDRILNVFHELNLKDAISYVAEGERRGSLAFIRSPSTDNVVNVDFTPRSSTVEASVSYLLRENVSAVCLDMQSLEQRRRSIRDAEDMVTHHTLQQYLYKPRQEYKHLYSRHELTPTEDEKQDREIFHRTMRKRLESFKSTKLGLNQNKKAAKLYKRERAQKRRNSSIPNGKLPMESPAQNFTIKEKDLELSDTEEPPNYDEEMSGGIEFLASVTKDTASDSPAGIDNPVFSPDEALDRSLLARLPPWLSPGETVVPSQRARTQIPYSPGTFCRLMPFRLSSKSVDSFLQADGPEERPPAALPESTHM
T1 sequence (Q99653 2-195 partner limits assumed): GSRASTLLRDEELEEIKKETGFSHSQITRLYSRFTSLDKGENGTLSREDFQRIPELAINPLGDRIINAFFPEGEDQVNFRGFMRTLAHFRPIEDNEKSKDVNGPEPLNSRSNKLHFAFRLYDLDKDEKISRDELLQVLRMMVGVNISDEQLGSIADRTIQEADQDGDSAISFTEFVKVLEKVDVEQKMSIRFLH
In short: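 Persistent inhibition: compound (0-30 μM, 60 min, RT, NaCl-HEPES pH 7.4) removed before assay. Human NHE3/NHERF2 PS120 cells were then BCECF-loaded during NH4Cl pulse (30 min, 37 °C), acidified in Na+-free buffer, and Na+ added 10 min after washout; antiport measured as initial fluorescence-ratio change per minute.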

[1] = test system: human duodenum monolayer culture; test: Sustained inhibition of apical acid secretion in human organoid monolayer cell cultures (duodenum); type: cell-based; settings: Homo sapiens
Method: Basal media (BM) consisted of advanced DMEM/F12 containing 10 mM HEPES Invitrogen, 15630-080), 1:100 Glutamax (Invitrogen, 35050-061), and 1:100 penicillin/streptomycin (Invitrogen, 15140-122). Supplemented basal media (SBM) contained 1:100 N2 (Invitrogen, 17502-048), 1:50 B27 (Invitrogen, 12587-010), 1 mM N-acetylcysteine (Sigma, A9165), and 10 nM [Leu15]-gastrin I (Sigma, G9145). Growth factors used included 50 ng per mL mouse EGF (Peprotech, 315-09), 100 ng per mL mouse noggin (Peprotech, 250-38), 500 ng per mL human R-spondin 1 (R&D, 4645-RS), 100 ng per mL mouse Wnt-3a (R&D, 1324-WN), 20 μM. Y-27632 (Tocris, 1254), 10 mM nicotinamide (Sigma, N0636), 500 nM A83-01 (Tocris, 2939), 10 μM SB202190 (Tocris, 1264). Transwells were 0.4 μm pore polyester membrane 24-well Transwell inserts (Corning). Cultures were incubated at 37° C. in 5% CO2.
Each human ileum monolayer culture well was washed twice with fresh SBM on the apical side on day 6 before compound dosing. All compound stocks were 10 mM dissolved in DMSO. Each compound stock was individually mixed with fresh SBM to reach final compound concentration 1 μM and dosed only on the apical side of the monolayer (total volume 200 μl). DMSO at the equivalent concentration was used as the vehicle control. Duplicate wells were dosed for each compound. On day 8, apical media pH was measured by pH electrode, to determine the ability of example compounds to produce sustained inhibition of NHE3 activity in a human monolayer culture system by preventing proton secretion into the apical compartment.
Human duodenum organoids were cultured in WENRNAS (Wnt, EGF, noggin, R-spondin1, Nicotinamide, A83-01, SB202190) and typically grown for 7-12 days before being used to plate monolayer cultures. On day 0, organoid cultures embedded in Matrigel were treated with TrypLE Express to break organoids into small pieces and/or single cells. The cells were resuspended to 0.5×10^6 cells/mL in SBM containing WENRAY (Wnt, EGF, noggin, R-spondin1, A83-01, Y-27632). Following this step, 200 μL of cell suspension was plated into the apical side of a 24-well Transwell (100,000 cells/well) and 600 μL of SBM with WENRAY was added to the basolateral side. Duodenum cells were differentiated with ENA (EGF, noggin, A83-01) on day 3. The color of apical compartment turns from pink or orange to yellow due to the increase in NHE3 expression after differentiation.

| SMILES | % inhibition (NHE3) | inhibition at 1 µM [1] | pIC50 (NHE3) |
| --- | --- | --- | --- |
| O=C(NCCCCNC(=O)NCCOCCOCCNS(=O)(=O)c1ccc(O[C@H]2c3cc(Cl)cc(Cl)c3C[C@@H]2N2CCNCC2)c(F)c1)NCCOCCOCCNS(=O)(=O)c1ccc(O[C@H]2c3cc(Cl)cc(Cl)c3C[C@@H]2N2CCNCC2)c(F)c1 [Example 33, 3-[2-(2-[2-[(4-[[(1S,2S)-4,6-Dichloro-2-(piperazin-1-yl)-2,3-dihydro-1H-inden-1-yl]oxy]-3-fluorobenzene)sulfonamido]ethoxy]ethoxy)ethyl]-1-[4-[[(2-(2-[2-[(4-[[(1S,2S)-4,6-dichloro-2-(piperazin-1-yl)-2,3-dihydro-1H-inden-1-y]oxy]-3-fluorobenzene)sulfonamido]ethoxy]ethoxy)ethyl]carbamoyl]amino)butyl]urea; bis(trifluoroacetic acid)] | C (>70%) | > 70% | – |
| Cc1cc(Cl)cc2c1C[C@H](N1CCNCC1)[C@H]2Oc1ccc(S(=O)(=O)NCCOCCOCCNC(=O)NCCCCNC(=O)NCCOCCOCCNS(=O)(=O)c2ccc(O[C@H]3c4cc(Cl)cc(C)c4C[C@@H]3N3CCNCC3)cc2)cc1 [Example 34, 3-[2-(2-[2-[(4-[[(1S,2S)-6-Chloro-4-methyl-2-(piperazin-1-yl)-2,3-dihydro-1H-inden-1-yl]oxy]benzene)sulfonamido]ethoxy]ethoxy)ethyl]-1-[4-([[2-(2-[2-[(4-[[(1S,2S)-6-chloro-4-methyl-2-(piperazin-1-yl)-2,3-dihydro-1H-inden-1-yl]oxy]benzene)sulfonamido]ethoxy]ethyl)ethyl]carbamoyl]amino)butyl]urea; bis(trifluoroacetic acid)] | C (>70%) | 50 to 70% | – |
| Cc1cc(S(=O)(=O)NCCOCCOCCNC(=O)NCCCCNC(=O)NCCOCCOCCNS(=O)(=O)c2ccc(O[C@H]3c4cc(Cl)cc(C)c4C[C@@H]3N3CCNCC3)c(C)c2)ccc1O[C@H]1c2cc(Cl)cc(C)c2C[C@@H]1N1CCNCC1 [Example 35, 3-[2-(2-[2-[(4-[[(1S,2S)-6-Chloro-4-methyl-2-(piperazin-1-yl)-2,3-dihydro-1H-inden-1-yl]oxy]-3-methylbenzene)sulfonamido]ethoxy]ethoxy)ethyl]-1-[4-([[2-(2-[2-[(4-[[(1S,2S)-6-chloro-4-methyl-2-(piperazin-1-yl)-2,3-dihydro-1H-inden-1-yl]oxy]-3-methylbenzene)sulfonamido]ethoxy]ethoxy)ethyl]carbamoyl]amino)butyl]urea; bis(trifluoroacetic acid)] | C (>70%) | > 70% | C (NHE3 pIC50 > 7) |
| Cc1cc(Cl)cc2c1C[C@H](N1CCNCC1)[C@H]2Oc1ccc(S(=O)(=O)NCCOCCOCCNC(=O)NCCCCNC(=O)NCCOCCOCCNS(=O)(=O)c2ccc(O[C@H]3c4cc(Cl)cc(C)c4C[C@@H]3N3CCNCC3)c(F)c2)cc1F [Example 36, 3-[2-(2-[2-[(4-[[(1S,2S)-6-Chloro-4-methyl-2-(piperazin-1-yl)-2,3-dihydro-1H-inden-1-yl]oxy]-3-fluorobenzene)sulfonamido]ethoxy]ethoxy)ethyl]-1-[4-([[2-(2-[2-[(4-[[(1S,2S)-6-chloro-4-methyl-2-(piperazin-1-yl)-2,3-dihydro-1H-inden-1-yl]oxy]-3-fluorobenzene)sulfonamido]ethoxy]ethoxy)ethyl]carbamoyl]amino)butyl]urea; bis(trifluoroacetic acid)] | C (>70%) | > 70% | C (NHE3 pIC50 > 7) |
| N#Cc1cc(Cl)cc2c1C[C@H](N1CCNCC1)[C@H]2Oc1ccc(S(=O)(=O)NCCOCCOCCNC(=O)NCCCCNC(=O)NCCOCCOCCNS(=O)(=O)c2ccc(O[C@H]3c4cc(Cl)cc(C#N)c4C[C@@H]3N3CCNCC3)cc2)cc1 [Example 41, 3-[2-(2-[2-[(4-[[(1S,2S)-6-Chloro-4-cyano-2-(piperazin-1-yl)-2,3-dihydro-1H-inden-1-yl]oxy]benzene)sulfonamido]ethoxy]ethoxy)ethyl]-1-[4-([[2-(2-[2-[(4-[[(1S,2S)-6-chloro-4-cyano-2-(piperazin-1-yl)-2,3-dihydro-1H-inden-1-yl]oxy]benzene)sulfonamido]ethoxy]ethoxy)ethyl]carbamoyl]amino)butyl]urea; bis(trifluoroacetic acid)] | C (>70%) | > 70% | C (NHE3 pIC50 > 7) |
| Cc1cc(S(=O)(=O)NCCOCCOCCNC(=O)NCCCCNC(=O)NCCOCCOCCNS(=O)(=O)c2ccc(O[C@H]3c4cc(Cl)cc(C#N)c4C[C@@H]3N3CCNCC3)c(C)c2)ccc1O[C@H]1c2cc(Cl)cc(C#N)c2C[C@@H]1N1CCNCC1 [Example 42, 3-[2-(2-[2-[(4-[[(1S,2S)-6-Chloro-4-cyano-2-(piperazin-1-yl)-2,3-dihydro-1H-inden-1-yl]oxy]-3-methylbenzene)sulfonamido]ethoxy]ethoxy)ethyl]-1-[4-([[2-(2-[2-[(4-[[(1S,2S)-6-chloro-4-cyano-2-(piperazin-1-yl)-2,3-dihydro-1H-inden-1-yl]oxy]-3-methylbenzene)sulfonamido]ethoxy]ethoxy)ethyl]carbamoyl]amino)butyl]urea; bis(trifluoroacetic acid)] | C (>70%) | > 70% | C (NHE3 pIC50 > 7) |
| N#Cc1cc(Cl)cc2c1C[C@H](N1CCNCC1)[C@H]2Oc1ccc(S(=O)(=O)NCCOCCOCCNC(=O)NCCCCNC(=O)NCCOCCOCCNS(=O)(=O)c2ccc(O[C@H]3c4cc(Cl)cc(C#N)c4C[C@@H]3N3CCNCC3)c(F)c2)cc1F [Example 43, 3-[2-(2-[2-[(4-[[(1S,2S)-6-Chloro-4-cyano-2-(piperazin-1-yl)-2,3-dihydro-1H-inden-1-yl]oxy]-3-fluorobenzene)sulfonamido]ethoxy]ethoxy)ethyl]-1-[4-([[2-(2-[2-[(4-[[(1S,2S)-6-chloro-4-cyano-2-(piperazin-1-yl)-2,3-dihydro-1H-inden-1-yl]oxy]-3-fluorobenzene)sulfonamido]ethoxy]ethoxy)ethyl]carbamoyl]amino)butyl]urea; bis(trifluoroacetic acid)] | C (>70%) | > 70% | C (NHE3 pIC50 > 7) |
